Reference: PMC8022858, “Discovery of bone morphogenetic protein 7-derived peptide sequences that attenuate the human osteoarthritic chondrocyte phenotype” (Molecular Therapy. Methods & Clinical Development, 2021)

Tested on: HACs in OA synovial fluid (SF)
Assay: Peptide bioactivity on HACs cultured in OA synovial fluid (gene expression, sGAG, ALP activity, PGE2)
Format: cell-based, human
Conditions: 100 nM peptide, 20% (v/v) OA SF; for sGAG content of HAC cultures: 24 h (Figure 3D); for retainment of bioactivity on ALP activity in OA SF environment: 24 h (Figure 3E); for retainment of bioactivity on PGE2 secretion in OA SF environment: 24 h (Figure 3F); for expression of NKX3-2 / OA SF-induced expression of RUNX2, COL10A1, ALPL, MMP13, ADAMTS5, COX-2, and IL6 / OA SF-induced decline of SOX9 and COL2A1 expression: 24 h; for expression of NKX3-2: n = 3 donors (Figure 3A); for OA SF-induced expression of RUNX2, COL10A1, ALPL, MMP13, ADAMTS5, COX-2, and IL6: n = 3 donors (Figures 3B, 3C); for OA SF-induced decline of SOX9 and COL2A1 expression: n = 3 donors in triplicate (Figure 3A)
Description: To further corroborate the potential OA-protective properties of peptides p[63−82] and p[113−132], we mimicked the OA environment by exposing non-OA-HACs to OA SF. Culturing non-OA-HACs in the presence of OA SF reduced their SOX9, COL2A1, and NKX3-2 expression (Figure 3A), whereas expression of RUNX2, COL10A1, ALPL, MMP13, ADAMTS5, COX-2, and IL6 was induced by OA SF (Figures 3B and 3C). This was accompanied by increased ALP activity and PGE2 secretion (Figures 3E and 3F). […] The OA SF-induced expression of RUNX2, COL10A1, ALPL, MMP13, ADAMTS5, COX-2, and IL6 was, without exception, mitigated by peptides p[63−82] and p[113−132] (Figures 3B and 3C). sGAG content of HAC cultures was unaltered by the peptides (Figure 3D). Retainment of peptide p[63−82] and p[113−132] bioactivity on HACs in an OA SF environment was also confirmed for ALP activity (Figure 3E) and PGE2 secretion (Figure 3F).
Figure 3 Bioactivity of peptides p[63−82] and p[113−132] on OA articular chondrocytes in OA synovial fluid (SF) […] (n = 3 individual donors, tested in triplicate) were exposed to 100 nM peptide p[63−82] or p[113−132] in the presence of OA SF (20% [v/v]; equal ratio mix from five individual donors). Control is 20% (v/v) 0.9% NaCl. Cells were cultured in these conditions for 24 h and analyzed for mRNA expression of indicated genes (normalized for 28S rRNA expression and relative to control condition). (A) Expression of SOX9, COL2A1, and NKX3-2 mRNAs. (B) Expression of RUNX2, COL10A1, and ALPL mRNAs. (C) Expression of MMP13, ADAMTS5, COX-2, and IL-6 mRNAs. (D) GAG content (normalized to total protein content) was determined in the same conditions. (E) ALP enzyme activity in cell lysates of the same conditions was determined and normalized for total protein content. (F) PGE2 levels in culture supernatants of the same conditions. Error bars represent mean ± SEM, and statistical significance for peptide conditions or control versus SF condition as determined by unpaired two-tailed Student’s t test is represented as ∗p < 0.05, ∗∗p < 0.01, and ∗∗∗p < 0.001.
Cartilage was obtained from total knee arthroplasty of end-stage (K&L grades 3−4) OA patients and from resected knee cartilage from cartilage repair procedures of non-OA patients. Medical ethical permission was received from the Maastricht University Medical Center Medical Ethical Committee (approval number 2017-0183). Chondrocytes were isolated using collagenase as described earlier.[27] The HACs were cultured until passage two in DMEM/F12 (Life Technologies), 10% fetal calf serum (FCS; Sigma-Aldrich), 1% antibiotic/antimycotic (Life Technologies), and 1% non-essential amino acids (Life Technologies) in a humidified atmosphere at 37°C, 5% CO2. SW1353 cells (ATCC HTB-94, short tandem repeat [STR] profiled)[54] were cultured in identical conditions. For experiments, cells were plated in technical triplicates at 30,000 cells/cm^2. BMP7 (R&D Systems) was used at 1 nM. OA SF was perioperatively collected from OA patients (same medical ethics statement [2017-0183] as for cartilage above) and was centrifuged to remove cells/debris. For experiments, an SF pool from five OA patients was prepared (equal volume ratios) and applied on cells in a 20% (v/v) concentration. For RNAi, scrambled and NKX3-2 siRNA duplexes (Table S1) were custom made (Eurogentec). Transfection (100 nM siRNA) in HACs was performed using HiPerFect (QIAGEN) according to the manufacturer’s protocol. The BRE reporter,[32] CAGA12 reporter,[33] or cytomegalovirus (CMV)-Gaussia as transfection control[55] were transfected (100 ng/μL) in SW1353 cells using FuGENE (Promega) according to the manufacturer’s protocol. […]

| Substance | sGAG content of HAC cultures | retainment of bioactivity on ALP activity in OA SF environment | retainment of bioactivity on PGE2 secretion in OA SF environment | expression of NKX3-2 | OA SF-induced expression of RUNX2, COL10A1, ALPL, MMP13, ADAMTS5, COX-2, and IL6 | OA SF-induced decline of SOX9 and COL2A1 expression |
| --- | --- | --- | --- | --- | --- | --- |
| H-AAYYSEGESAFPLNSYMNAT-OH [p[63−82]] | unaltered | confirmed | confirmed | induced by the peptides to levels higher than in the control condition | mitigated | counteracted to some extent |
| H-SVLYFDDSSNVILKKYRNMV-OH [p[113−132]] | unaltered | confirmed | confirmed | induced by the peptides to levels higher than in the control condition | mitigated | counteracted to some extent |
